Target: protein kinases (human kinome)
Format: cell-based
Conditions: for Kinase hits: kinases significantly downregulated vs DMSO (fold change cutoff −1.25, P-value<0.01), ≤8 h, 0.1-5 μM degrader, 7 cell lines; for Total no. kinase hits: number of degraded kinases per library compound; for kinases the bifunctional compound degrades: as stated for the structure in the embodiments
Excerpt: Although development of targeted protein degraders requires a POI binder, among already-liganded proteins such as kinases, it was hypothesized that different targets would have a different propensity for current approaches to degrader-mediated destruction, which was termed ‘degradability’. […] It was rationalized that the probability of identifying the same kinase as a false positive in multiple treatments is low, therefore this analysis served to also assess the robustness of our data and subsequent interpretations. […] Overall, 62 protein kinases were degraded in more than 10 independent treatments, and remarkably, 9 of these (CDK4, AURKA, FER, WEE1, BLK. LIMK2, CDK6, GAK, LIMK1) were each degraded in at least 40 of the 154 independent treatments, emphasizing their predisposition to induced degradation (FIG. 1G; Appendix I).
Next, the frequency of degradation assessment was corrected for over-representation of molecules in the full dataset by omitting replicate profiling of compounds under different experimental conditions, to remove any bias. […] Unsurprisingly, the top degradable kinases mirror those from the previous analysis (CDK4, AURKA, FER, WEE1, BLK), confirming that in sufficiently large datasets, even with over-representation of certain molecules, frequency of degradation is a good measure of general tractability.

## CC(=O)c1c(C)c2cnc(Nc3ccc(N4CCN(CCOCCOCCOCCNC(=O)COc5cccc6c5C(=O)N(C5CCC(=O)NC5=O)C6=O)CC4)cn3)nc2n(C2CCCC2)c1=O (stereo not drawn) [BSJ-03-123]
  Kinase hits: BCKDK, CDK4, CDK6, COQ8A, PDK1, PDK2, PDK3, WEE1
  Total no. kinase hits: 8

## Cc1cnc(Nc2ccc(N3CCN(CCOCCOCCC(=O)N[C@H](C(=O)N4C[C@H](O)C[C@H]4C(=O)N[C@@H](C)c4ccc(-c5scnc5C)cc4)C(C)(C)C)CC3)cc2)nc1Nc1cccc(S(=O)(=O)NC(C)(C)C)c1 [JWG-122]
  kinases the bifunctional compound degrades: AAK1 and GAK
  Kinase hits: AAK1, GAK
  Total no. kinase hits: 2

## Cc1cc(S(=O)(=O)NCCOCCOCCOCCOCCNc2cccc3c2C(=O)N(C2CCC(=O)NC2=O)C3=O)ccc1Nc1ncc(Br)c(Nc2cccc(F)c2C(N)=O)n1 (stereo not drawn) [TMX-02-172]
  Kinase hits: AURKA, AURKB, CDK1, CDK2, CDK5, MAPK8, MAPK9, PTK2, RPS6KA1, RPS6KA3, STK33, TTK
  Total no. kinase hits: 12

## CC(C)S(=O)(=O)c1ccccc1Nc1nc(Nc2ccc(N3CCN(CCOCCOCCC(=O)NCCNc4cccc5c4CN(C4CCC(=O)NC4=O)C5=O)CC3)cc2)ncc1Cl (stereo not drawn) [TL13-97, 3-(2-(2-(4-(4-((5-chloro-4-((2-(isopropylsulfonyl)phenyl)amino)pyrimidin-2-yl)amino)phenyl)piperazin-1-yl)ethoxy)ethoxy)-N-(2-((2-(2,6-dioxopiperidin-3-yl)-1-1722 oxoisoindolin-4-yl)amino)ethyl)propenamide]
  kinases the bifunctional compound degrades: AAK1, ABL2, AURKA, AURKB, BLK, BUB1B, CDK13, CDK17, CDK2, CDK4, CDK5. CDK6. CDK7. CDK9. FER, ITK, LCK, LIMK1, LIMK2, MAP3K11, MARK4, PLK4, PRKAA1, RPS6KA1, SRC. STK10, STK38, TEC, TNK2, ULK1, ULK3, and WEE1
  Kinase hits: AAK1, ABL2, AURKA, AURKB, BLK, BUB1B, CDK13, CDK17, CDK2, CDK4, CDK5, CDK6, CDK7, CDK9, FER, ITK, LCK, LIMK1, LIMK2, MAP3K11, MARK4, PLK4, PRKAA1, RPS6KA1, SRC, STK10, STK38, TEC, TNK2, ULK1, ULK3, WEE1
  Total no. kinase hits: 32

## CC(=O)c1c(C)c2cnc(Nc3ccc(N4CCN(CCCCNC(=O)CNc5cccc6c5C(=O)N(C5CCC(=O)NC5=O)C6=O)CC4)cn3)nc2n(C2CCCC2)c1=O (stereo not drawn) [BSJ-01-147]
  Kinase hits: CDK4, CDK6, WEE1
  Total no. kinase hits: 3

## Cn1c(=O)c(-c2c(Cl)cccc2Cl)cc2cnc(Nc3ccc(OCCNC(=O)CCCCCCNC(=O)COc4cccc5c4C(=O)N(C4CCC(=O)NC4=O)C5=O)cc3)nc21 (stereo not drawn) [SB1-G-192-1, N-(2-(4-((6-(2,6-dichlorophenyl)-8-methyl-7-oxo-7,8-dihydropyrido[2,3-d]pyrimidin-2-yl)amino)phenoxy)ethyl)-7-(2-((2-(2,6-dioxopiperidin-3-yl)-1,3-dioxoisoindolin-4-1413 yl)oxy)acetamido)heptanamide]
  kinases the bifunctional compound degrades: ABL1, ABL2, AURKA, BLK, CSK, EPHA3, EPHB6, FYN, GAK, LCK. LIMK2, MAPK14, NLK, PDK1, PKMYT1, SIK2, SRC, TNK2, WEE1, and YES1
  Kinase hits: ABL1, ABL2, AURKA, BLK, CSK, EPHA3, EPHB6, FYN, GAK, LCK, LIMK2, MAPK14, NLK, PDK1, PKMYT1, SIK2, SRC, TNK2, WEE1, YES1
  Total no. kinase hits: 20

## CC(C)S(=O)(=O)c1ccccc1Nc1nc(Nc2ccc(N3CCN(CCOCCNC(=O)CNc4ccc5c(c4)C(=O)N(C4CCC(=O)NC4=O)C5=O)CC3)cc2)ncc1Cl (stereo not drawn) [SK-3-93]
  kinases the bifunctional compound degrades: AAK1, ABL2, AURKA, BLK, BMP2K, CDK12, CDK13, CDK17, CDK2, CDK4, CDK5, CDK6, CDK7, CDK9, FER, GAK, ITK. LCK, LIMK2. PRKAA1, PTK2B, RPS6KA1, SRC, and WEE1
  Kinase hits: AAK1, ABL2, AURKA, BLK, BMP2K, CDK12, CDK13, CDK17, CDK2, CDK4, CDK5, CDK6, CDK7, CDK9, FER, GAK, ITK, LCK, LIMK2, PRKAA1, PTK2B, RPS6KA1, SRC, WEE1,
  Total no. kinase hits: 24

From patent publication US20240269139A1, “COMPOUNDS FOR TARGETED PROTEIN DEGRADATION OF KINASES” (DANA-FARBER CANCER INSTITUTE, INC., priority 2020, published 2024)
